The values that follow are results of earlier work, collected in patent US20100202983A1, “SELECTIVELY TARGETED ANTIMICROBIALS FOR THE TREATMENT OF PERIODONTAL DISEASE” (priority 2009, published 2010).

Data set [1] relates to S. mutans. The note with it: cell culture.
Data set [2] concerns S. mutans.
Data set [3] relates to Porphyromonas gingivalis and Streptococcus mitis. The settings on record: Murakami et al., Infect. Immun. 59:3284 (1991).

“FBRW-16: antimicrobial peptide useful in the present invention (LKRFLKWFKRFGGGRWRWRWF; FBRW-16)”: the “efficacy for reducing the colony forming units of S. mutans” value with S. mutans [1] was “efficacy has been demonstrated”.
Turning to “FBRW-22: antimicrobial peptide useful in the present invention (RWRWRWFGGGFKKFWKWFRRF; FBRW-22)”, in the data set on S. mutans [1], the “efficacy for reducing the colony forming units of S. mutans” value was “efficacy has been demonstrated”.
Turning to “C16G2: S. mutans-specific targeting peptide linked via linker peptide to an antimicrobial peptide (TFFRLFNRSFTQALGKGGGKNLRIIRKGIHIIKKY; selectively/specifically targeted antimicrobial peptide (STAMP) chimeric polypeptide C16G2)”, the “efficacy for reducing the biofilms formed by S. mutans, and other microbial pathogenic microbes” value in the data set on S. mutans [2] is reported as “efficacy has been demonstrated”.
For “C16 BD2.21: S. mutans-specific targeting peptide linked via linker peptide to an antimicrobial peptide (TFFRLFNRSFTQALGKGGGKLFKFLRKHLL; selectively/specifically targeted antimicrobial peptide (STAMP) chimeric polypeptide C16-BD2.21)”, the “efficacy for reducing the biofilms formed by S. mutans, and other microbial pathogenic microbes” value with S. mutans [2] is recorded as “efficacy has been demonstrated”.
As to “1903 BD2-21: S. mutans-specific targeting peptide linked via linker peptide to an antimicrobial peptide (NIFEYFLEGGGKLFKFLRKHLL; selectively/specifically targeted antimicrobial peptide (STAMP) chimeric polypeptide 1903-BD2.21)”, the “efficacy for reducing the biofilms formed by S. mutans, and other microbial pathogenic microbes” value with S. mutans [2] is “efficacy has been demonstrated”.
As to “FBα-20: antimicrobial peptide useful in the present invention (RWRRLLKKLHHLLHGGGFKKFWKWFRRF; FBalpha-20)”, the “efficacy for reducing the colony forming units of S. mutans” value in the data set with S. mutans [1] is on record as “efficacy has been demonstrated”.
On to “FBα-21: antimicrobial peptide useful in the present invention (RWRRLLKKLHHLLHGGGIKQLLHFFQRF; FBalpha-21)”, for which the “efficacy for reducing the colony forming units of S. mutans” value in the data set with S. mutans [1] is “efficacy has been demonstrated”.
Turning to “M8-33: S. mutans-specific targeting peptide linked via linker peptide to an antimicrobial peptide (TFFRLFNRSGGGFKKFWKWFRRF; selectively/specifically targeted antimicrobial peptide (STAMP) chimeric polypeptide M8-33)”, the “efficacy for reducing the biofilms formed by S. mutans, and other microbial pathogenic microbes” value in the data set with S. mutans [2] is “efficacy has been demonstrated”.
Turning to “Histatin 5: 24-residue peptide from human saliva with antifungal properties (DSHAKRHHGYKRKFHEKHHSHRGY; histatin 5 peptide)”, the “inhibition of coaggregation between Porphyromonas gingivalis and Streptococcus mitis” value in data set [3] is recorded as “inhibits coaggregation”.
Regarding “FBRW-15: antimicrobial peptide useful in the present invention (IKQLLHFFQRFGGGRWRWRWF; FBRW-15)”, the “efficacy for reducing the colony forming units of S. mutans” value in the data set on S. mutans [1] was “efficacy has been demonstrated”.
Turning to “FBRW-24: antimicrobial peptide useful in the present invention (RWRWRWFGGGLKRFLKWFKRF; FBRW-24)”, the “efficacy for reducing the colony forming units of S. mutans” value in the data set on S. mutans [1] is listed as “efficacy has been demonstrated”.
“M8G2: S. mutans-specific targeting peptide linked via linker peptide to an antimicrobial peptide (TFFRLFNRGGGKNLRIIRKGIHIIKKY; selectively/specifically targeted antimicrobial peptide (STAMP) chimeric polypeptide M8G2)”: the “efficacy for reducing the biofilms formed by S. mutans, and other microbial pathogenic microbes” value in the data set with S. mutans [2] is “efficacy has been demonstrated”.
